In patent US20260234161A1, “RIFABUTIN ANALOGS FOR THE TREATMENT OF BACTERIAL DISEASES” (BIOVERSYS AG, priority 2023, published 2026) one finds MIC data, which are given here for 17 compounds.

What all share (assay type): cell-based
The test system of assay [1] is M. abscessus (ATCC 19977). As to the kind of experiment: MIC by broth microdilution, M. abscessus in cation adjusted Mueller Hinton broth. The settings on record: Mycobacteroides abscessus, ATCC19977, 96 h, read-out: MIC M. abscessus MH. The procedure:
(§1) MIC values were determined by broth microdilution method according to the CLSI guidelines with the following exceptions: MIC against A. baumannii was performed in RPMI medium supplemented with 10% FCS and MIC against M. abscessus was performed in Middlebrook 7H9 broth supplemented with Middlebrook ADC growth supplement (10%; see column “M. abscessus 7H9”). MIC forM abscessus was determined a second time in standard cation adjusted Mueller Hinton broth without growth supplement (see colum “M. abscessus MH”). All other MIC were performed in standard cation adjusted Mueller Hinton broth, supplemented with Middlebrook ADC growth supplement (5%) for the slow growing mycobacteria (M. xenopi, M. kansasii and M. avium).
(§2) The following procedure applies to all species tested, except forM xenopi. From a fresh culture plate (from overnight to several days depending on the bacteria), cells were resuspended in 0.9% (w/v) saline solution and bacterial inoculum was prepared in the respective testing medium with 5×10^5 CFU/mL. For M. xenopi, the inoculum was prepared from a fresh liquid culture (7H9+ADC). The appropriate volumes of a 10 mg/mL compound solution were directly dispensed in the 96-well assay plate using a digital dispenser to create two-fold dilution series from 32 to 0.002 μg/mL final concentration for A. baumannii and S. aureus; from 16 to 0.016 μg/mL for M. abscessus and M. avium; and from 1 to 6×10^−5 μg/mL for M. kansasii and M. xenopi. 100 μL of bacterial suspension was finally added to the compounds. Plates were covered and incubated without shaking at 35° C. for 20 hours for A. baumanii and S. aureus; at 30° C. for 4 days for M. abscessus; and at 37° C. for 7 days (at least) for M. kansasii (covered with aluminum foil to avoid light exposure), M. avium and M. xenopi. Every experiment contained an antibiotic as quality control. MIC was determined visually as the lowest concentration of a compound that prevents visible growth of the bacteria.
(§3) The in vitro activity of compounds described herein was determined against S. aureus (UAMS-1625 strain), A. baumannii (HUMC1 strain), M. abscessus (ATCC 19977), M. kansasii (ATCC 12478), M. avium (ATCC 25291), and M. xenopi (ATCC 19250).
For orientation: Dilution methods test growth across graded concentrations, often in twofold steps.

In assay [2] the test system is M. abscessus (ATCC 19977). As to the kind of experiment: MIC by broth microdilution, M. abscessus in Middlebrook 7H9 broth + ADC. The settings on record: Mycobacteroides abscessus, ATCC19977, 96 h, read-out: MIC M. abscessus 7H9. The procedure: as §1, §2, §3
Assay [3] has as its system S. aureus (UAMS-1625 strain). As to the kind of experiment: MIC by broth microdilution, S. aureus. The conditions noted are these: Staphylococcus aureus, 20 h, read-out: MIC S. aureus. The procedure:
as §1, §2, §3

Assay [4] has as its system A. baumannii (HUMC1 strain). As to the kind of experiment: MIC by broth microdilution, A. baumannii (RPMI + 10% FCS). The conditions noted are these: Acinetobacter baumannii, read-out: MIC A. baumannii. The method, then:
as §1, §2, §3

Where [5] appears, read: ATCC 19977, cation adjusted Mueller Hinton broth without growth supplement, 30° C., 4 days.
The mark [6] stands for this setting: ATCC 19977, Middlebrook 7H9 broth + ADC growth supplement (10%), 30° C., 4 days.
The mark [7] stands for this setting: HUMC1 strain, RPMI medium + 10% FCS, 35° C., 20 hours.

A word on the MIC: it is the lowest concentration that inhibits growth of the organism.

Converted amounts (≈) assume the structure as drawn. Read-outs that look alike come from different tables or passages of the source.

On to `CO[C@H]1/C=C/O[C@@]2(C)Oc3c(C)c(O)c4c(c3C2=O)C2=NC3(CCN(CC(C)C)CC3)NC2=C(NC(=O)/C(C)=C\C=C\[C@H](C)[C@H](O)[C@@H](C)[C@@H](O)[C@@H](C)[C@H](OC(=O)N2CCC(N(C)C)CC2)[C@@H]1C)C4=O` [Compound 3], for which the MIC in assay [1] (setting [5]) is 4 µg/mL (≈ 4.17 µM); in assay [2] (setting [6]), 0.5 µg/mL; in assay [3], 0.03 µg/mL (≈ 0.0313 µM); in assay [4] (setting [7]), no more than 0.002 µg/mL.
For `CO[C@H]1/C=C/O[C@@]2(C)Oc3c(C)c(O)c4c(c3C2=O)C2=NC3(CCN(CC(C)C)CC3)NC2=C(NC(=O)/C(C)=C\C=C\[C@H](C)[C@H](O)[C@@H](C)[C@@H](O)[C@@H](C)[C@H](OC(=O)N2CCC(Nc3cccnc3)CC2)[C@@H]1C)C4=O` [Compound 5], the MIC in assay [1] (setting [5]) stood at 4 µg/mL (≈ 3.97 µM); in assay [2] (setting [6]), 1 µg/mL; in assay [3], 0.125 µg/mL (≈ 0.124 µM); in assay [4] (setting [7]), 0.004 µg/mL.
Consider `CO[C@H]1/C=C/O[C@@]2(C)Oc3c(C)c(O)c4c(c3C2=O)C2=NC3(CCN(CC(C)C)CC3)NC2=C(NC(=O)/C(C)=C\C=C\[C@H](C)[C@H](O)[C@@H](C)[C@@H](O)[C@@H](C)[C@H](OC(=O)N2CCN(C)CC2)[C@@H]1C)C4=O` [Compound 6], for which the MIC was 4 µg/mL (≈ 4.3 µM) in assay [1] (setting [5]), 1 µg/mL in assay [2] (setting [6]), 0.06 µg/mL (≈ 0.0644 µM) in assay [3] and 0.06 µg/mL in assay [4] (setting [7]).
Regarding `CO[C@H]1/C=C/O[C@@]2(C)Oc3c(C)c(O)c4c(c3C2=O)C2=NC3(CCN(CC(C)C)CC3)NC2=C(NC(=O)/C(C)=C\C=C\[C@H](C)[C@H](O)[C@@H](C)[C@@H](O)[C@@H](C)[C@H](OC(=O)N2CCN(C3CCN(C)CC3)CC2)[C@@H]1C)C4=O` [Compound 11], the MIC is 4 µg/mL (≈ 3.94 µM) in assay [1] (setting [5]), 0.5 µg/mL in assay [2] (setting [6]), 0.125 µg/mL (≈ 0.123 µM) in assay [3] and no more than 0.002 µg/mL in assay [4] (setting [7]).
Consider `CO[C@H]1/C=C/O[C@@]2(C)Oc3c(C)c(O)c4c(c3C2=O)C2=NC3(CCN(CC(C)C)CC3)NC2=C(NC(=O)/C(C)=C\C=C\[C@H](C)[C@H](O)[C@@H](C)[C@@H](O)[C@@H](C)[C@H](OC(=O)N2CCN(CCN3CCCCC3)CC2)[C@@H]1C)C4=O` [Compound 12], for which the MIC was 1 µg/mL (≈ 0.972 µM) in assay [1] (setting [5]), 0.5 µg/mL in assay [2] (setting [6]), 0.125 µg/mL (≈ 0.122 µM) in assay [3] and no more than 0.002 µg/mL in assay [4] (setting [7]).
As for `CO[C@H]1/C=C/O[C@@]2(C)Oc3c(C)c(O)c4c(c3C2=O)C2=NC3(CCN(CC(C)C)CC3)NC2=C(NC(=O)/C(C)=C\C=C\[C@H](C)[C@H](O)[C@@H](C)[C@@H](O)[C@@H](C)[C@H](OC(=O)N2CCN(CCN3CCOCC3)CC2)[C@@H]1C)C4=O` [Compound 13], the MIC in assay [1] (setting [5]) is 0.5 µg/mL (≈ 0.485 µM); in assay [2] (setting [6]), 0.5 µg/mL; in assay [3], 0.06 µg/mL (≈ 0.0582 µM); in assay [4] (setting [7]), no more than 0.002 µg/mL.
`CO[C@H]1/C=C/O[C@@]2(C)Oc3c(C)c(O)c4c(c3C2=O)C2=NC3(CCN(CC(C)C)CC3)NC2=C(NC(=O)/C(C)=C\C=C\[C@H](C)[C@H](O)[C@@H](C)[C@@H](O)[C@@H](C)[C@H](OC(=O)N2CCCN(c3ccccn3)CC2)[C@@H]1C)C4=O` [Compound 15]: the MIC amounted to 1 µg/mL (≈ 0.992 µM) in assay [1] (setting [5]), 0.5 µg/mL in assay [2] (setting [6]), 0.06 µg/mL (≈ 0.0595 µM) in assay [3] and 0.008 µg/mL in assay [4] (setting [7]).
On to `CO[C@H]1/C=C/O[C@@]2(C)Oc3c(C)c(O)c4c(c3C2=O)C2=NC3(CCN(CC(C)C)CC3)NC2=C(NC(=O)/C(C)=C\C=C\[C@H](C)[C@H](O)[C@@H](C)[C@@H](O)[C@@H](C)[C@H](OC(=O)N2CCCN(c3ccc(F)cc3)CC2)[C@@H]1C)C4=O` [Compound 16], for which the MIC in assay [1] (setting [5]) was 2 µg/mL (≈ 1.95 µM); in assay [2] (setting [6]) it was 1 µg/mL; in assay [3], 0.25 µg/mL (≈ 0.244 µM); in assay [4] (setting [7]), 0.03 µg/mL.
For `CO[C@H]1/C=C/O[C@@]2(C)Oc3c(C)c(O)c4c(c3C2=O)C2=NC3(CCN(CC(C)C)CC3)NC2=C(NC(=O)/C(C)=C\C=C\[C@H](C)[C@H](O)[C@@H](C)[C@@H](O)[C@@H](C)[C@H](OC(=O)N2CCN(Cc3ccccc3)CC2)[C@@H]1C)C4=O` [Compound 17], the MIC in assay [1] worked out at 1 µg/mL (≈ 0.993 µM); in assay [2] it was 0.125 µg/mL; in assay [3], 0.25 µg/mL (≈ 0.248 µM); in assay [4] (20 h), 0.125 µg/mL.
In the case of `CO[C@H]1/C=C/O[C@@]2(C)Oc3c(C)c(O)c4c(c3C2=O)C2=NC3(CCN(CC(C)C)CC3)NC2=C(NC(=O)/C(C)=C\C=C\[C@H](C)[C@H](O)[C@@H](C)[C@@H](O)[C@@H](C)[C@H](OC(=O)N2CCC3(CCN(CCC(C)C)CC3)CC2)[C@@H]1C)C4=O` [Compound 71], the MIC in assay [1] (setting [5]) was determined as 0.25 µg/mL (≈ 0.237 µM); in assay [3] it was 0.25 µg/mL (≈ 0.237 µM); in assay [4] (setting [7]), 0.008 µg/mL.
As to `CO[C@H]1/C=C/O[C@@]2(C)Oc3c(C)c(O)c4c(c3C2=O)C2=NC3(CCN(CC(C)C)CC3)NC2=C(NC(=O)/C(C)=C\C=C\[C@H](C)[C@H](O)[C@@H](C)[C@@H](O)[C@@H](C)[C@H](OC(=O)NC2CCN(C)CC2)[C@@H]1C)C4=O` [Compound 73], the MIC in assay [1] worked out at 1 µg/mL (≈ 1.06 µM); in assay [3] it was 0.03 µg/mL (≈ 0.0317 µM); in assay [4] (20 h), 0.001 µg/mL.
`CCN1CCC(NC(=O)O[C@H]2[C@H](C)[C@H](O)[C@H](C)[C@@H](O)[C@@H](C)/C=C/C=C(/C)C(=O)NC3=C4NC5(CCN(CC(C)C)CC5)N=C4c4c(c(O)c(C)c5c4C(=O)[C@@](C)(O/C=C/[C@H](OC)[C@H]2C)O5)C3=O)CC1` [Compound 74]: the MIC in assay [1] (setting [5]) is 2 µg/mL (≈ 2.09 µM); in assay [3], 0.03 µg/mL (≈ 0.0313 µM); in assay [4] (setting [7]), no more than 0.001 µg/mL.
As to `CCCN1CCC(NC(=O)O[C@H]2[C@H](C)[C@H](O)[C@H](C)[C@@H](O)[C@@H](C)/C=C/C=C(/C)C(=O)NC3=C4NC5(CCN(CC(C)C)CC5)N=C4c4c(c(O)c(C)c5c4C(=O)[C@@](C)(O/C=C/[C@H](OC)[C@H]2C)O5)C3=O)CC1` [Compound 75], the MIC is 1 µg/mL (≈ 1.03 µM) in assay [1] (setting [5]), 0.06 µg/mL (≈ 0.0617 µM) in assay [3] and 0.001 µg/mL in assay [4] (setting [7]).
`CO[C@H]1/C=C/O[C@@]2(C)Oc3c(C)c(O)c4c(c3C2=O)C2=NC3(CCN(CC(C)C)CC3)NC2=C(NC(=O)/C(C)=C\C=C\[C@H](C)[C@H](O)[C@@H](C)[C@@H](O)[C@@H](C)[C@H](OC(=O)NC2CCN(C(C)C)CC2)[C@@H]1C)C4=O` [Compound 76]: the values for the MIC in assay [1] (setting [5]), in assay [3] and in assay [4] (setting [7]) were 2 µg/mL (≈ 2.06 µM), 0.03 µg/mL (≈ 0.0308 µM) and no more than 0.001 µg/mL, respectively.
Regarding `CO[C@H]1/C=C/O[C@@]2(C)Oc3c(C)c(O)c4c(c3C2=O)C2=NC3(CCN(CC(C)C)CC3)NC2=C(NC(=O)/C(C)=C\C=C\[C@H](C)[C@H](O)[C@@H](C)[C@@H](O)[C@@H](C)[C@H](OC(=O)NC2CCN(C3CCOCC3)CC2)[C@@H]1C)C4=O` [Compound 78], the MIC is 2 µg/mL (≈ 1.97 µM) in assay [1], 0.06 µg/mL (≈ 0.0591 µM) in assay [3] and no more than 0.001 µg/mL in assay [4] (20 h).
Consider `CO[C@H]1/C=C/O[C@@]2(C)Oc3c(C)c(O)c4c(c3C2=O)C2=NC3(CCN(CC(C)C)CC3)NC2=C(NC(=O)/C(C)=C\C=C\[C@H](C)[C@H](O)[C@@H](C)[C@@H](O)[C@@H](C)[C@H](OC(=O)N(C)C2CC2)[C@@H]1C)C4=O` [Compound 82], for which the MIC in assay [1] (setting [5]) is 4 µg/mL (≈ 4.43 µM); in assay [3] it was 0.06 µg/mL (≈ 0.0665 µM); in assay [4] (setting [7]), 0.008 µg/mL.
`CO[C@H]1/C=C/O[C@@]2(C)Oc3c(C)c(O)c4c(c3C2=O)C2=NC3(CCN(CC(C)C)CC3)NC2=C(NC(=O)/C(C)=C\C=C\[C@H](C)[C@H](O)[C@@H](C)[C@@H](O)[C@@H](C)[C@H](OC(=O)N(C)C(C)C)[C@@H]1C)C4=O` [Compound 83]: the results for the MIC in assay [1] (setting [5]), in assay [3] and in assay [4] (setting [7]) were 2 µg/mL (≈ 2.21 µM), 0.125 µg/mL (≈ 0.138 µM) and 0.016 µg/mL, respectively.
